Results published in the supplement of paper PMC10307832.

Legend:
Assay in all cases: relative viability (nuclei count vs DMSO), 5 days (fraction); higher = more cells survive
[1] = compound: CN1CCC(CC1)OC2=CC(=C(C=C2)NC3=NC=C4C(=N3)N(C(=O)N4C)C5CCCC5)OC [AZ3146] + CC1(C)CCC(c2ccc(Cl)cc2)=C(CN2CCN(c3ccc(C(=O)NS(=O)(=O)c4ccc(N[C@H](CCN5CCOCC5)CSc5ccccc5)c(S(=O)(=O)C(F)(F)F)c4)cc3)CC2)C1 [Navitoclax] (partner 0.5 µM)
Outline: (§1)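 A single step with final 0.05% Triton X-100, 1% formaldehyde and 1 ug/ml Hoechst fixed the cells and stained nuclei 5 days after treatment. Lung cancer cell lines in 1536-well plates had been treated by pin tool the day after seeding with one drug alone or a fixed anchor-drug dose plus five library-drug doses (not always all listed) in √10 steps, and nuclei were counted on 4× images. Relative viability is the ratio of nuclei in treated wells to nuclei in vehicle wells, taken as the median of duplicate plates.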

[2] = compound: CN1CCC(CC1)OC2=CC(=C(C=C2)NC3=NC=C4C(=N3)N(C(=O)N4C)C5CCCC5)OC [AZ3146] + C[C@@H](Oc1cc(-c2cnn(C3CCNCC3)c2)cnc1N)c1c(Cl)ccc(F)c1Cl [Crizotinib] (partner 1 µM)
Outline: as §1

[3] = compound: CCOC(=O)CCNc1cc(N2CCc3ccccc3CC2)nc(-c2ccccn2)n1 [GSK-J4] + Cc1cc(Nc2cc(N3CCN(C)CC3)nc(Sc3ccc(NC(=O)C4CC4)cc3)n2)n[nH]1 [Tozasertib] (partner 0.1 µM)
Outline: as §1

[4] = compound: CN1CCC(CC1)OC2=CC(=C(C=C2)NC3=NC=C4C(=N3)N(C(=O)N4C)C5CCCC5)OC [AZ3146] + Nc1nc2[nH]cc(CCc3ccc(C(=O)N[C@@H](CCC(=O)O)C(=O)O)cc3)c2c(=O)[nH]1 [Pemetrexed] (partner 0.2 µM)
Outline: as §1

EBC-1
relative viability ([1]; first compound 0.08 µM): 0.499 | relative viability ([1]; first compound 0.253 µM): 0.464 | relative viability ([1]; first compound 0.8 µM): 0.426 | relative viability ([1]; first compound 2.53 µM): 0.412 | relative viability ([1]; first compound 8 µM): 0.229 | relative viability ([2]; first compound 0.08 µM): 0.192 | relative viability ([2]; first compound 0.253 µM): 0.213 | relative viability ([2]; first compound 0.8 µM): 0.173 | relative viability ([2]; first compound 2.53 µM): 0.194 | relative viability ([2]; first compound 8 µM): 0.166

NCI-H2342
relative viability ([3]; first compound 0.5 µM): 0.427 | relative viability ([3]; first compound 1.581 µM): 0.664 | relative viability ([3]; first compound 5 µM): 0.482 | relative viability ([3]; first compound 15.81 µM): 0.557 | relative viability ([3]; first compound 50 µM): 0.529 | relative viability ([4]; first compound 0.08 µM): 0.69 | relative viability ([4]; first compound 0.253 µM): 0.821 | relative viability ([4]; first compound 0.8 µM): 0.807 | relative viability ([4]; first compound 2.53 µM): 0.756 | relative viability ([4]; first compound 8 µM): 0.752

NCI-H650
relative viability ([3]; first compound 0.5 µM): 0.677 | relative viability ([3]; first compound 1.581 µM): 0.727 | relative viability ([3]; first compound 5 µM): 0.432 | relative viability ([3]; first compound 15.81 µM): 0.526 | relative viability ([3]; first compound 50 µM): 0.459 | relative viability ([2]; first compound 0.08 µM): 0.571 | relative viability ([2]; first compound 0.253 µM): 0.721 | relative viability ([2]; first compound 0.8 µM): 0.827 | relative viability ([2]; first compound 2.53 µM): 0.781 | relative viability ([2]; first compound 8 µM): 0.542 | relative viability ([4]; first compound 0.08 µM): 0.871 | relative viability ([4]; first compound 0.253 µM): 0.747 | relative viability ([4]; first compound 0.8 µM): 0.78 | relative viability ([4]; first compound 2.53 µM): 0.949 | relative viability ([4]; first compound 8 µM): 0.948

NCI-H522
relative viability ([3]; first compound 0.5 µM): 0.541 | relative viability ([3]; first compound 1.581 µM): 0.608 | relative viability ([3]; first compound 5 µM): 0.502 | relative viability ([3]; first compound 15.81 µM): 0.515 | relative viability ([3]; first compound 50 µM): 0.485 | relative viability ([4]; first compound 0.08 µM): 0.917 | relative viability ([4]; first compound 0.253 µM): 0.905 | relative viability ([4]; first compound 0.8 µM): 0.898 | relative viability ([4]; first compound 2.53 µM): 1.09 | relative viability ([4]; first compound 8 µM): 0.968

LCLC-103H
relative viability ([3]; first compound 0.5 µM): 0.515 | relative viability ([3]; first compound 1.581 µM): 0.434 | relative viability ([3]; first compound 5 µM): 0.526 | relative viability ([3]; first compound 15.81 µM): 0.444 | relative viability ([3]; first compound 50 µM): 0.332 | relative viability ([2]; first compound 0.08 µM): 0.987 | relative viability ([2]; first compound 0.253 µM): 1.08 | relative viability ([2]; first compound 0.8 µM): 0.984 | relative viability ([2]; first compound 2.53 µM): 1.08 | relative viability ([2]; first compound 8 µM): 1.11 | relative viability ([4]; first compound 0.08 µM): 0.429 | relative viability ([4]; first compound 0.253 µM): 0.439 | relative viability ([4]; first compound 0.8 µM): 0.444 | relative viability ([4]; first compound 2.53 µM): 0.49 | relative viability ([4]; first compound 8 µM): 0.499

NCI-H661
relative viability ([3]; first compound 0.5 µM): 0.355 | relative viability ([3]; first compound 1.581 µM): 0.3 | relative viability ([3]; first compound 5 µM): 0.357 | relative viability ([3]; first compound 15.81 µM): 0.335 | relative viability ([3]; first compound 50 µM): 0.413 | relative viability ([2]; first compound 0.08 µM): 0.979 | relative viability ([2]; first compound 0.253 µM): 1.14 | relative viability ([2]; first compound 0.8 µM): 1.03 | relative viability ([2]; first compound 2.53 µM): 1.11 | relative viability ([2]; first compound 8 µM): 0.814 | relative viability ([4]; first compound 0.08 µM): 0.939 | relative viability ([4]; first compound 0.253 µM): 0.894 | relative viability ([4]; first compound 0.8 µM): 0.956 | relative viability ([4]; first compound 2.53 µM): 0.92 | relative viability ([4]; first compound 8 µM): 0.818

NCI-H358
relative viability ([3]; first compound 0.5 µM): 0.087 | relative viability ([3]; first compound 1.581 µM): 0.0898 | relative viability ([3]; first compound 5 µM): 0.0969 | relative viability ([3]; first compound 15.81 µM): 0.113 | relative viability ([3]; first compound 50 µM): 0.129 | relative viability ([2]; first compound 0.08 µM): 0.587 | relative viability ([2]; first compound 0.253 µM): 0.616 | relative viability ([2]; first compound 0.8 µM): 0.425 | relative viability ([2]; first compound 2.53 µM): 0.398 | relative viability ([2]; first compound 8 µM): 0.177 | relative viability ([4]; first compound 0.08 µM): 0.153 | relative viability ([4]; first compound 0.253 µM): 0.168 | relative viability ([4]; first compound 0.8 µM): 0.192 | relative viability ([4]; first compound 2.53 µM): 0.171 | relative viability ([4]; first compound 8 µM): 0.156

NCI-H727
relative viability ([3]; first compound 0.5 µM): 0.714 | relative viability ([3]; first compound 1.581 µM): 0.541 | relative viability ([3]; first compound 5 µM): 0.621 | relative viability ([3]; first compound 15.81 µM): 0.585 | relative viability ([3]; first compound 50 µM): 0.463 | relative viability ([1]; first compound 0.08 µM): 0.501 | relative viability ([1]; first compound 0.253 µM): 0.476 | relative viability ([1]; first compound 0.8 µM): 0.431 | relative viability ([1]; first compound 2.53 µM): 0.436 | relative viability ([1]; first compound 8 µM): 0.413 | relative viability ([2]; first compound 0.08 µM): 0.813 | relative viability ([2]; first compound 0.253 µM): 0.796 | relative viability ([2]; first compound 0.8 µM): 0.8 | relative viability ([2]; first compound 2.53 µM): 0.586 | relative viability ([2]; first compound 8 µM): 0.365

NCI-H1793
relative viability ([3]; first compound 0.5 µM): 0.331 | relative viability ([3]; first compound 1.581 µM): 0.315 | relative viability ([3]; first compound 5 µM): 0.305 | relative viability ([3]; first compound 15.81 µM): 0.266 | relative viability ([3]; first compound 50 µM): 0.286 | relative viability ([1]; first compound 0.08 µM): 0.437 | relative viability ([1]; first compound 0.253 µM): 0.311 | relative viability ([1]; first compound 0.8 µM): 0.46 | relative viability ([1]; first compound 2.53 µM): 0.492 | relative viability ([1]; first compound 8 µM): 0.436 | relative viability ([4]; first compound 0.08 µM): 1.02 | relative viability ([4]; first compound 0.253 µM): 0.792 | relative viability ([4]; first compound 0.8 µM): 0.565 | relative viability ([4]; first compound 2.53 µM): 1.16 | relative viability ([4]; first compound 8 µM): 0.51

NCI-H1792
relative viability ([1]; first compound 0.08 µM): 0.492 | relative viability ([1]; first compound 0.253 µM): 0.786 | relative viability ([1]; first compound 0.8 µM): 0.582 | relative viability ([1]; first compound 2.53 µM): 0.64 | relative viability ([1]; first compound 8 µM): 0.654 | relative viability ([2]; first compound 0.08 µM): 0.834 | relative viability ([2]; first compound 0.253 µM): 1.07 | relative viability ([2]; first compound 0.8 µM): 1.01 | relative viability ([2]; first compound 2.53 µM): 0.797 | relative viability ([2]; first compound 8 µM): 1 | relative viability ([4]; first compound 0.08 µM): 0.606 | relative viability ([4]; first compound 0.253 µM): 0.871 | relative viability ([4]; first compound 0.8 µM): 0.68 | relative viability ([4]; first compound 2.53 µM): 1.04 | relative viability ([4]; first compound 8 µM): 0.701
